Key:
Detroit 562 = test: Antiproliferative activity against human Detroit 562 cells; format: functional, cell-based
HCT-116 [1] = test: Cytotoxicity against human HCT-116 cells assessed as reduction in cell growth incubated for 24 hrs by MTT assay; format: functional, cell-based; details: HCT-116, 24 h
HeLa [2] = test: Cytotoxicity against human HeLa cells assessed as reduction in cell viability after 72 hrs by MTT assay; format: functional, cell-based
U-937 = test: Antiproliferative activity against human U-937 cells; format: functional, cell-based
HL-60 = test: Antiproliferative activity against human HL-60 cells; format: functional, cell-based
PC-3 [3] = test: Cytotoxicity against human PC-3 cells assessed as reduction in cell growth incubated for 3 days by MTT assay; format: functional, cell-based; details: PC-3, 72 h
HCT-116 [4] = test: Cytotoxicity against human HCT-116 cells assessed as reduction in cell viability measured after 48 hrs by MTT assay; format: functional, cell-based; details: HCT-116, 48 h
HeLa [5] = test: Anticancer activity against human HeLa cells assessed as reduction in cell viability by MTT assay; format: functional, cell-based
A549 = test: Anticancer activity against human A549 cells assessed as reduction in cell viability by MTT assay; format: functional, cell-based
SNB-19 = test: Cytotoxicity against human SNB-19 cells assessed as reduction in cell growth incubated for 24 hrs by MTT assay; format: functional, cell-based; details: SNB-19, 24 h
MCF7 [6] = test: Cytotoxicity against human MCF7 cells assessed as reduction in cell growth incubated for 24 hrs by MTT assay; format: functional, cell-based; details: MCF7, 24 h
T47D = test: Cytotoxicity against human T47D cells assessed as reduction in cell growth incubated for 24 hrs by MTT assay; format: functional, cell-based
AGS = test: Anticancer activity against human AGS cells; format: functional, cell-based
MCF7 [7] = test: Cytotoxicity against human MCF7 cells assessed as cell growth inhibition incubated for 72 hrs by SRB assay; format: functional, cell-based; details: MCF7, 72 h
CCRF-CEM = test: Antiproliferative activity against human CCRF-CEM cells; format: functional, cell-based
SW-620 = test: Antiproliferative activity against human SW620 cells assessed as inhibition of cell growth measured after 72 hrs by MTT assay; format: functional, cell-based; details: SW-620, 72 h
[8] = Cytotoxicity against hTERT Lung Fibroblast cells assessed as reduction in cell growth incubated for 72 hrs by MTT assay; format: toxicity, cell-based; details: human
MCF7 [9] = test: Cytotoxicity against human MCF7 cells assessed as reduction in cell growth incubated for 72 hrs by MTT assay; format: functional, cell-based; details: MCF7, 72 h
MCF7 [10] = test: Cytotoxicity against human MCF7 cells assessed as reduction in cell viability incubated for 48 hrs by MTT assay; format: functional, cell-based; details: MCF7, 48 h
HCT-116 [11] = test: Cytotoxicity against human HCT-116 cells assessed as reduction in cell viability incubated for 24 hrs by MTT assay; format: functional, cell-based; details: HCT-116, 24 h
MDA-MB-231 = test: Antiproliferative activity against human MDA-MB-231 cells assessed as reduction in cell viability; format: functional, cell-based
MCF7 [12] = test: Antiproliferative activity against human MCF7 cells assessed as reduction in cell viability; format: functional, cell-based
HCT-116 [13] = test: Antiproliferative activity against human HCT-116 cells assessed as inhibition of cell growth measured after 72 hrs by MTT assay; format: functional, cell-based; details: HCT-116, 72 h
HepG2 = test: Anticancer activity against human HepG2 cells; format: functional, cell-based
PC-3 [14] = test: Antiproliferative activity against human PC-3 cells assessed as reduction in cell viability incubated for 72 hrs by MTT assay; format: functional, cell-based; details: PC-3, 72 h
K562 = test: Antiproliferative activity against human K562 cells assessed as reduction in cell viability incubated for 72 hrs by MTT assay; format: functional, cell-based; details: K562, 72 h
MCF7 [15] = test: Antiproliferative activity against human MCF7 cells assessed as reduction in cell growth incubated for 24 hrs by MTT assay; format: functional, cell-based; details: MCF7, 24 h
HeLa [16] = test: Cytotoxicity against human HeLa cells by MTT assay; format: functional, cell-based
Huh-7 = test: Cytotoxicity against human Huh-7 cells assessed as cell growth inhibition incubated for 72 hrs by SRB assay; format: functional, cell-based; details: Huh-7, 72 h

COc1cc(C(=O)/C=C/c2ccccc2)cc(OC)c1OC
IC50 (Detroit 562): 3070 nM

C=C(C)[C@@H]1CC[C@]2(COC(C)=O)CC[C@]3(C)[C@H](CC[C@@H]4[C@@]5(C)Cc6nn(C(C)=O)nc6C(C)(C)[C@@H]5CC[C@]43C)[C@@H]12
IC50 (HCT-116 [1]): 22500 nM

C=C(C)[C@@H]1CC[C@]2(CO)CC[C@]3(C)[C@H](CC[C@@H]4[C@@]5(C)Cc6nn(C(C)=O)nc6C(C)(C)[C@@H]5CC[C@]43C)[C@@H]12
IC50 (HCT-116 [1]): 5670 nM

CC(=O)O[C@@H]1[C@H](OC(C)=O)[C@H](OC(C)=O)CO[C@H]1n1cc(COC(=O)[C@]2(C)CCC[C@@]3(C)[C@@H]4CC[C@@]5(C)C[C@]4(CC[C@@H]32)CC5=O)nn1
IC50 (HeLa [2]): 1700 nM

CNc1nc2ccccc2n2c(CCc3ccccc3)cnc12
IC50 (U-937): 820 nM | IC50 (HL-60): 2070 nM

Cc1nn(-c2ccc(S(N)(=O)=O)cc2)c(N)c1-c1nnc(SC/C(=N\O)c2ccccc2)n1-c1ccccc1
IC50 (PC-3 [3]): 330 nM

CC(=O)O[C@@H]1O[C@H](Cn2cc(COc3cccc4cccnc34)nn2)[C@H](OC(C)=O)[C@H](OC(C)=O)[C@H]1OC(C)=O
IC50 (HCT-116 [4]): 10800 nM

O=Cc1cc(Cc2ccc3oc(C(=O)c4ccc(Cl)cc4)cc3c2)ccc1OCc1cn(-c2ccccc2C(F)(F)F)nn1
IC50 (HeLa [5]): 29.1 nM | IC50 (A549): 40.4 nM

C=C(C)[C@@H]1CC[C@]2(COC(=O)c3cn(Cc4ccc(F)cc4)nn3)CC[C@]3(C)[C@H](CC[C@@H]4[C@@]5(C)CC[C@H](OC(=O)c6cnnn6Cc6ccc(F)cc6)C(C)(C)[C@@H]5CC[C@]43C)[C@@H]12
IC50 (SNB-19): 80 nM | IC50 (MCF7 [6]): 90 nM | IC50 (T47D): 50 nM

O=c1cc(-c2ccccc2)c2ccc(OCc3nncn3-c3ccc(Cl)cc3)cc2o1
IC50 (AGS): 2630 nM

O=C(O)c1ccc(C(=O)NCn2cc(CSc3nc(-c4ccccc4)c(-c4ccccc4)n3-c3ccccc3)nn2)cc1
IC50 (MCF7 [7]): 380 nM

COc1cc(/C=C/C(=O)/C(Cc2cnnn2Cc2ccc(F)cc2)=C(O)/C=C/c2ccc(O)c(OC)c2)ccc1O
IC50 (CCRF-CEM): 3310 nM

c1ccc(-n2cc(-c3nc4ccc(C5=NCCN5)cc4s3)nn2)cc1
IC50 (SW-620): 250 nM

CC(=O)O[C@H]1CC[C@]2(C)[C@H]3CC=C4[C@@H]5[C@@H](C)[C@H](C)CC[C@]5(C(=O)OCc5cn(Cc6nonc6C)nn5)CC[C@@]4(C)[C@]3(C)CC[C@H]2C1(C)C
IC50 at 72 h [8]: 10400 nM | IC50 (MCF7 [9]): 1550 nM

Cc1nccc2c1[nH]c1cc(OCc3cn(-c4cc(=O)oc5ccccc45)nn3)ccc12
IC50 (MCF7 [10]): 6900 nM

O=c1oc2ccccc2c2c1cnn2Cc1cn(-c2ccc(Cl)cc2)nn1
IC50 (HCT-116 [11]): 20200 nM

CC(C)[C@@H]1CC[C@@H](C)C[C@@H]1On1cc(CN2C(=O)C(=O)c3ccccc32)nn1
IC50 (MDA-MB-231): 1790 nM | IC50 (MCF7 [12]): 1340 nM

CCc1nnc2c(-c3ccccc3)cc3c(Br)c(OC)c(OC)cc3n12
IC50 (HCT-116 [13]): 500 nM

Nn1c(Sc2c(O)c3ccccc3oc2=O)nnc1-c1ccc(Cl)cc1
IC50 (HepG2): 1780 nM

CC(C)(C)c1ccc(-c2cn(Cc3cc4c(o3)-c3ccccc3C(=O)C4=O)nn2)cc1
IC50 (PC-3 [14]): 1400 nM | IC50 (K562): 900 nM

CC(=O)O[C@@H]1O[C@H](Cn2cc(COc3cccc4cccnc34)nn2)[C@@H](OC(C)=O)[C@H](OC(C)=O)[C@H]1OC(C)=O
IC50 (HCT-116 [4]): 22300 nM

COC(=O)c1ccccc1-n1ncc(CSc2nnc(-c3ccccc3)o2)n1
IC50 (MCF7 [15]): 1260 nM

Cc1ccc(Cn2cc(Cn3c(Cl)cc(=O)n(C)c3=O)nn2)cc1
IC50 (HeLa [16]): 4500 nM | IC50 (Huh-7): 7700 nM
